Laboratory results: PMC11259170, “Small-molecule probe for IBD risk variant GPR65 I231L alters cytokine signaling networks through positive allosteric modulation” (Science Advances, 2024)
Where two headings read alike, the source gives them in different places.

Columns and labels:
[1] = test system: GFP-expressing HeLa cells; assay: cAMP detection in HeLa expression cell line, GFP control; format: cell-based, human; conditions: Homo sapiens, HeLa; for Emax: relative to 100uM forskolin (100%) and DMSO (0%), read-out: GFP Max Activity %
Description: (§1) HeLa stable expression cell lines were produced by lentiviral transduction. Briefly, lentiviral plasmids for each GPCR with a C-terminal V5 Tag ([…]) were made in a pLX317 backbone using competent Escherichia coli (New England Biolabs, C3050H). Lenti-X 293 T (Takara, 632810) cells were transfected with the lentiviral plasmids to produce virus. Low-passage HeLa cells (American Type Culture Collection, CCL-2) were then transduced with lentivirus. After 48 hours, HeLa cells were cultured under selection with puromycin (3 μg/ml) and allowed to recover and expand before storing stocks in liquid nitrogen.
(§2) cAMP was measured in cells using the Lance Ultra cAMP Kit. HeLa cells were cultured under puromycin (3 μg/ml) selection. One day before the experiment, cells were seeded in T75 flasks and allowed to adhere overnight. On the day of the experiment, cells were washed twice with Dulbecco’s PBS and lifted using prewarmed 1× versene solution (Gibco, 15040066). Cells were counted in HBSS (Gibco, 14025092) and then resuspended in stimulation buffer prepared according to the manufacturer’s instructions and adjusted to pH 7.2 using 1 M sodium hydroxide. Cells were added to the plate at a density of 1500 cells per well in white opaque 384-well assay ready microplates containing 100 nl of 10 mM compound in DMSO. Cells were stimulated for 30 min at RT, then lysed and incubated with detection reagents for 1 hour in the dark at RT. Plates were read on BMG Labtech PHERAstar FSX (excitation, 337 nm; emission, 620 and 665 nm). Data analysis was performed using GraphPad Prism.

[2] = target: T1, hGPR65 (Homo sapiens, UniProt Q8IYL9); assay: cAMP detection in HeLa expression cell line, hGPR65; format: cell-based; conditions: for Emax: HeLa, read-out: hGPR Max Activity %; for cAMP production relative to BRD2813, hGPR65: pH 7.2
T1 construct: expressed in transfected cells; host or cells: HeLa (ATCC CCL-2), lentiviral transduction, pLX317
T1 sequence (Q8IYL9 whole entry): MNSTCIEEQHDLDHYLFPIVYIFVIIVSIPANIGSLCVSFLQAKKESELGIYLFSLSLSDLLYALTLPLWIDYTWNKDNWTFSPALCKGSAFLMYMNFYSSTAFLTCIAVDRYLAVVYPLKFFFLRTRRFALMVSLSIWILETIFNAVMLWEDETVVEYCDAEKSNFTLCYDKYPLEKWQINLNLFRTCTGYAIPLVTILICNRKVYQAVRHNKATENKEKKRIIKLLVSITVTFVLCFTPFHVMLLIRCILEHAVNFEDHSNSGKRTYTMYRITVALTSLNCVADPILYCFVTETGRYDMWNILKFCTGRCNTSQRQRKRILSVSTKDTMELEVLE
Description: as §1, §2

[3] = target: T2, mGPR65 (Mus musculus, UniProt Q61038); assay: cAMP detection in HeLa expression cell line, mGPR65; format: cell-based; conditions: for Emax: HeLa, read-out: mGPR Max Activity %; for cAMP production relative to BRD2813, mGPR65: pH 7.2
T2 construct: expressed in transfected cells; host or cells: HeLa (ATCC CCL-2), lentiviral transduction, pLX317
T2 sequence (Q61038 whole entry): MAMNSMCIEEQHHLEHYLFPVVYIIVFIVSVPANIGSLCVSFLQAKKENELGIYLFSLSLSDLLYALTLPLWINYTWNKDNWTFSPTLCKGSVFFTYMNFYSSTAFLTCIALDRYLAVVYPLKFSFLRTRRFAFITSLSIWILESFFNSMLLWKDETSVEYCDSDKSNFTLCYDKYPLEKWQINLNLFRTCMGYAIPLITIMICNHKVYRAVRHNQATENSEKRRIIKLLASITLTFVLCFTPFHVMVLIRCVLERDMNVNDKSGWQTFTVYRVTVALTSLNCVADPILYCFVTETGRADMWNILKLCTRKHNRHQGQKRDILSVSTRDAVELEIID
Description: as §1, §2

[4] = second pair, relative to 100uM forskolin (100%) and DMSO (0%)
[5] = 1st GFP column pair, NA = no activity
[6] = 2nd GFP column pair, NA = no activity
[7] = 1st hGPR column pair, NA = no activity, read-out: hGPR EC50
[8] = 2nd hGPR column pair, NA = no activity, read-out: hGPR EC50
[9] = 1st hGPR column pair, relative to 100uM forskolin (100%) and DMSO (0%), NA = no activity
[10] = 2nd hGPR column pair, relative to 100uM forskolin (100%) and DMSO (0%), NA = no activity
[11] = 1st mGPR column pair, NA = no activity, read-out: mGPR EC50
[12] = 2nd mGPR column pair, NA = no activity, read-out: mGPR EC50
[13] = 2nd mGPR column pair, relative to 100uM forskolin (100%) and DMSO (0%), NA = no activity
[14] = relative to 100uM forskolin (100%) and DMSO (0%), NA = no activity
[15] = hGPR EC50 (uM), NA = no activity
[16] = mGPR EC50 (uM), 2nd mGPR column pair, NA = no activity
[17] = mGPR EC50 (uM), NA = no activity

| SMILES | EC50 [1, 5] [nM] | Emax [1, 5] [%] | EC50 [1, 6] [nM] | Emax [1, 6] [%] | EC50 [2, 7] [µM] | EC50 [2, 8] [µM] | Emax [2, 9] [%] | Emax [2, 10] [%] | EC50 [3, 11] [µM] | EC50 [3, 12] [µM] | Emax [3, 13] [%] | Emax [3, 14] [%] | further results |
| --- | --- | --- | --- | --- | --- | --- | --- | --- | --- | --- | --- | --- | --- |
| Cc1ccc(NC(=O)c2cnn3c(O)cc(-c4ccc(C5CCCCC5)cc4)nc23)cc1 [BRD5881] |  |  |  |  |  |  |  |  |  |  |  |  | EC50 ([1]; SAR cAMP assay, second EC50/Max pair of GFP control columns): 453 nM; Emax ([1]; second pair): 1.64%; Emax ([2]; first pair, relative to 100uM forskolin (100%) and DMSO (0%)): 39.5%; Emax [2, 4]: 95.7%; EC50 ([2]; SAR cAMP assay, first EC50/Max pair of hGPR columns, read-out: hGPR EC50): 3.88 µM; EC50 ([2]; SAR cAMP assay, second EC50/Max pair of hGPR columns, read-out: hGPR EC50): 90.6 µM; Emax [3, 4]: 9.83%; EC50 ([3]; SAR cAMP assay, second EC50/Max pair of mGPR columns, read-out: mGPR EC50): 0.579 µM |
| COc1cccc(-c2cc(O)n3ncc(C(=O)Nc4ccc(C)cc4)c3n2)c1 [BRD6202] | 3170 | 1.48 | 195 | 3.9 | 1.3 | 1.75 | 72.3 | 73.6 | 0.378 | 0.451 | 58.8 | 63.3 |  |
| CCS(=O)(=O)c1ccc(NC(=O)c2cnn3c(O)cc(-c4ccc(COC)cc4)nc23)cc1 [BRD7157] |  |  | 16700 | 6.57 |  |  |  |  | 10.7 | 14.6 | 19.6 | 64.9 | EC50 ([2]; NA = no activity, read-out: hGPR EC50): 27.2 µM; hGPR Max Activity [2, 14]: 17.41%; EC50 ([3]; 3rd mGPR column pair, NA = no activity, read-out: mGPR EC50): 4.47 µM; mGPR Max Activity [3, 14]: 44.17% |
| Cc1ccc(NC(=O)c2cnn3c(O)cc(-c4ccc(N5CCN(C)CC5)cc4)nc23)cc1 [BRD7215] |  |  | 63500 | 7.18 |  |  | 48.2 | 57.7 |  |  | 48.7 | 57.8 | EC50 [2, 15]: 2.74 µM; EC50 ([2]; hGPR EC50, NA = no activity): 4.39 µM; cAMP production relative to BRD2813, hGPR65 [2]: decreasing cAMP production; EC50 [3, 16]: 1.1 µM; EC50 [3, 17]: 0.161 µM; cAMP production relative to BRD2813, mGPR65 [3]: increasing activity |
| CCCc1cc(-c2cc(O)n3ncc(C(=O)Nc4ccc(C)cc4)c3n2)no1 [BRD8472] | 24900 | 2.75 |  |  | 1.25 | 0.79 | 67.7 | 51.3 | 0.103 | 0.397 | 55.4 | 59.4 |  |
| Cc1ccc(NC(=O)c2cnn3c(O)cc(-c4ccc(N5CCC(=O)CC5)cc4)nc23)cc1 [BRD8536] | 802 | 1.86 |  |  | 4.05 | 5.53 | 65.7 | 63.9 | 0.98 | 2.81 | 52.9 | 63.5 |  |
| Cc1ccc(NC(=O)c2cnn3c(O)cc(-c4ccc(-c5ccccc5)cc4)nc23)cc1 [BRD8716] | 7300 | 1.95 | 5600 | 1.51 | 0.171 | 0.284 | 79.2 | 72.4 | 0.368 | 0.528 | 33.1 | 40.2 | potency and total cAMP production relative to BRD2813 ([2]; receptor not given): improved potency but had little effect on total cAMP production |
| COCc1ccc(-c2cc(O)n3ncc(C(=O)Nc4ccccc4)c3n2)cc1 [BRD9876] | 3620 | 1.96 | 25700 | 3.97 |  |  | 81.6 | 79.5 |  |  | 34.4 | 45.3 | EC50 [2, 15]: 8.06 µM; EC50 ([2]; hGPR EC50, NA = no activity): 12 µM; cAMP production relative to BRD2813, hGPR65 [2]: detrimental to potency; EC50 [3, 16]: 4.76 µM; EC50 [3, 17]: 4.06 µM; cAMP production relative to BRD2813, mGPR65 [3]: decreased potency |
